Experimental data reported in patent EP0033825A2, “2-Cyano-vinyl-(thiono)(thiol)-phosphoric or phosphonic acid derivatives as endoparasiticidal agents” (priority 1980, dated 1981).
Read-outs that look alike come from different tables or passages of the source.

Key:
[1] = tested on: normal empfindlichen Haemonchus contortus; assay: Haemonchus contortus/sheep test, normally sensitive strain (faecal egg count before and after oral treatment); type: in vivo; details: Schaf, pure active substance in gelatine capsules, treated after prepatent period, reduction of worm egg excretion ≥90 %, read-out: Dosis effectiva minima (Red. ≥90 %) normal empfind-licher Stamm
Text: (§1) Haemonchus contortus/Schaf
(§2) Experimentell mit normal empfindlichen bzw. mit gegen Benzimidazol-Anthelmintika resistenten Haemonchus contortus infizierte Schafe wurden nach Ablauf der Präpatenzzeit des Parasiten behandelt. Die Wirkstoffe wurde als reiner Wirkstoff in Gelatinekapseln oral appliziert.
(§3) Der Wirkungsgrad wird dadurch bestimmt, daß man die mit dem Kot ausgeschiedenen Wurmeier vor und nach der Behandlung quantitativ auszählt.
(§4) Ein völliges Sistieren der Eiausscheidung nach der Behandlung bedeutet, daß die Würmer abgetrieben wurden oder so geschädigt sind, daß sie keine Eier mehr produzieren (Dosis effectiva).
(§5) Geprüfte Wirkstoffe und wirksame Dosierungen (Dosis effectiva minima) sind aus der nachfolgenden Tabelle ersichtlich: […]

[2] = tested on: gegen Benzimidazol-Anthelmintika resistenten Haemonchus contortus; assay: Haemonchus contortus/sheep test, benzimidazole-resistant strain (faecal egg count before and after oral treatment); type: in vivo; details: read-out: Dosis effectiva minima (Red. ≥90 %) resistenter Stamm
Text: as §1, §2, §3, §4, §5

[3] = Schaf, oral, pure active substance in gelatine capsules, treated after prepatent period, reduction of worm egg excretion ≥90 %, benzimidazole-resistant strain

SMILES	minimal effective dose [1]	minimal effective dose ([2]; po)	minimal effective dose [2, 3]
CCCSc1ccc2nc(NC(=O)OC)[nH]c2c1 [Albendazol, Methyl-(5-prepylthio-benzimidazol-2-yl)-carbamat]	0.5 mg/kg	5 mg/kg	
COC(=O)Nc1nc2ccc(Sc3ccccc3)cc2[nH]1 [Fenbendazol, Methyl-(5-phenyl-thie-benzimidazol-2-yl)-carbamat]	0.5 mg/kg	2.5 mg/kg	
CCCCc1ccc2[nH]c(NC(=O)OC)nc2c1 [Parbendazol, 5-N-Butyl-2-methoxycarbonylaminobenzimidazol]	1 mg/kg	10 mg/kg	
c1ccc2[nH]c(-c3cscn3)nc2c1 [Thiabendazol, 2-(4-Thiazolyl)-benzimidazel]	25 mg/kg	250 mg/kg	
CCOP(=S)(OCC)OC(=CC#N)c1cccc(C)c1 [Verbindung Nr. 12]	1 mg/kg		1 mg/kg
CCOP(=S)(OCC)OC(=CC#N)c1ccccc1Br [Verbindung Nr. 46]	1 mg/kg		1 mg/kg
CCCOP(=S)(OCC)OC(=CC#N)c1ccccc1C (centres unmarked) [Verbindung Nr. 89]	2.5 mg/kg		2.5 mg/kg
